From publication PMC11915372, “Identification of a Series Containing a Pentafluorophenyl Moiety That Targets Pks13 to Inhibit Growth of Mycobacterium tuberculosis” (ACS Infectious Diseases, 2025)
pIC50: −log10 of the molar value. Converted amounts (≈) assume the structure as drawn. Like-named read-outs stand apart in the source and are kept apart here.

What was measured:
M. tuberculosis (H37Rv) = experiment: microbe, parasite or virus in culture; assay type: cell-based, Mycobacterium tuberculosis; settings: for MIC: Mycobacterium tuberculosis, H37RV
physchem [1] = assay type: physicochemical
[2] = assay type: in vitro ADME, mouse; settings: for Microsomal Cli: CD1, mouse; for Mouse micro Cl: microsomes
[3] = assay type: in vitro ADME, mouse; settings: mouse; for Mouse Heps Cl: hepatocytes
physchem [4] = settings: pH 7.4
HepG2 cells = experiment: HepG2 cytotoxicity; settings: Homo sapiens, HepG2, read-out: HepG2 inhibitory concentration (IC50)
Source text: Assays to establish HepG2 cytotoxicity, in vitro microsomal/hepatocyte metabolic stability, aqueous kinetic solubility, and in vivo pharmacokinetic profiles were all performed as previously described.[15],[35]−[37]

M. tuberculosis H37Rv [5] = assay type: in vivo; settings: C57BL/6J mice, oral dosing for 8 days from day 1 post-infection, qPCR
M. tuberculosis H37Rv [6] = assay type: cell-based, Mycobacterium tuberculosis
[7] = test system: H37Rv growing inside J774 macrophages; experiment: Intramacrophage efficacy; assay type: cell-based, Mycobacterium tuberculosis; settings: 7 days of treatment
[8] = human liver microsomes
[9] = mouse, in vivo
[10] = efficacy experiment at 20 times the oral PK dose
in vivo = settings: C57BL/6J, mouse, po
in vitro = settings: plasma
[11] = test system: mycolic acid biosynthesis; settings: with accumulation of mycolic acid precursors; cited from earlier work
[12] = read-out: Wk2_7H9/DPPC/ casitone/ Tyloxapol MIC
[13] = read-out: Wk2_ 7H9/DPPC/ cholesterol/BSA/ Tyloxapol MIC
[14] = read-out: Wk2_7H9/glucose/ BSA/Tyloxapol MIC
[15] = read-out: Wk2_7H9/glucose/ casitone/ Tyloxapol MIC
[16] = pH 7.4, aqueous buffer, kinetic from dmso stock

| SMILES | MIC (M. tuberculosis (H37Rv); read-out: H37Rv MIC A) [µM] | MIC (M. tuberculosis (H37Rv); read-out: H37Rv MIC B) [µM] | MIC (M. tuberculosis (H37Rv); [12]) [µM] | MIC (M. tuberculosis (H37Rv); [13]) [µM] | MIC (M. tuberculosis (H37Rv); [14]) [µM] | MIC (M. tuberculosis (H37Rv); [15]) [µM] | solubility kinetic (physchem [1]; [16]) [µM] | solubility kinetic (physchem [1]; read-out: Kin. Sol) [µM] | Microsomal Cli [2] [mL/min/g] | Mouse micro Cl [2] | Hepatocyte Cli [3] [mL/min/g] | Mouse Heps Cl [3] | chromatographic logD (physchem [4]) | pIC50 (HepG2 cells) | also measured |
| --- | --- | --- | --- | --- | --- | --- | --- | --- | --- | --- | --- | --- | --- | --- | --- |
| Cc1nc(C(=O)O)c(NC(=O)c2c(F)c(F)c(F)c(F)c2F)o1 [Compound 38, Cc1nc(c(o1)NC(=O)c1c(c(c(c(c1F)F)F)F)F)C(=O)O] | > 50 | > 50 | 5.4 (≈ 1.82 µg/mL) | > 50 | 43 (≈ 14.5 µg/mL) | 7.7 (≈ 2.59 µg/mL) | 250 (≈ 84 µg/mL) | 250 (≈ 84 µg/mL) | <0.5 | <0.5 mL/min/g | 1.3 | 1.3 mL/min/g | 0.78 | < 4.00 |  |
| CC(=O)c1nc(C)oc1NC(=O)c1c(F)c(F)c(F)c(F)c1F [Compound 39, CC(=O)c1nc(oc1NC(=O)c1c(c(c(c(c1F)F)F)F)F)C] | 1.2 (≈ 0.401 µg/mL) | 3.1 (≈ 1.04 µg/mL) | 1.2 (≈ 0.401 µg/mL) | 3.1 (≈ 1.04 µg/mL) | 3.1 (≈ 1.04 µg/mL) | 1.2 (≈ 0.401 µg/mL) | 241 (≈ 80.5 µg/mL) | 241 (≈ 80.5 µg/mL) | <0.5 | <0.5 mL/min/g | 8.6 | 8.6 mL/min/g | 1.2 | < 4.00 |  |
| Cc1nc(C(=O)N(C)C)c(NC(=O)c2c(F)c(F)c(F)c(F)c2F)o1 [Compound 40, CN(C)C(=O)c1nc(oc1NC(=O)c1c(c(c(c(c1F)F)F)F)F)C] | 12.5 (≈ 4.54 µg/mL) | 19 (≈ 6.9 µg/mL) | 12.5 (≈ 4.54 µg/mL) | 19 (≈ 6.9 µg/mL) | 19 (≈ 6.9 µg/mL) | 9.4 (≈ 3.41 µg/mL) | 242 (≈ 87.9 µg/mL) | 242 (≈ 87.9 µg/mL) | 0.846 | 0.85 mL/min/g | 7.3 | 7.3 mL/min/g | 1.4 | < 4.00 |  |
| Cc1nc(-c2ncco2)c(NC(=O)c2c(F)c(F)c(F)c(F)c2F)o1 [Compound 41, Cc1nc(c(o1)NC(=O)c1c(c(c(c(c1F)F)F)F)F)-c1ncco1] | 0.4 (≈ 0.144 µg/mL) | 1.2 (≈ 0.431 µg/mL) | 0.4 (≈ 0.144 µg/mL) | 1.2 (≈ 0.431 µg/mL) | 1.2 (≈ 0.431 µg/mL) | 0.4 (≈ 0.144 µg/mL) | 234 (≈ 84.1 µg/mL) | 234 (≈ 84.1 µg/mL) | 0.5 | 0.51 mL/min/g | 12 | 12 mL/min/g | 1.7 | < 4.00 |  |
| Cc1nnc(-c2nc(C)oc2NC(=O)c2c(F)c(F)c(F)c(F)c2F)o1 [Compound 42, Cc1nnc(o1)-c1nc(oc1NC(=O)c1c(c(c(c(c1F)F)F)F)F)C] | 2.3 (≈ 0.861 µg/mL) | 6.3 (≈ 2.36 µg/mL) | 2.3 (≈ 0.861 µg/mL) | 6.3 (≈ 2.36 µg/mL) | 4.7 (≈ 1.76 µg/mL) | 2.3 (≈ 0.861 µg/mL) | 174 (≈ 65.1 µg/mL) | 174 (≈ 65.1 µg/mL) | <0.5 | <0.5 mL/min/g | 2.5 | 2.5 mL/min/g | 1.1 | < 4.00 | loss of MIC potency (M. tuberculosis (H37Rv); relative to comparator of the series (21 vs thiophenes; 42 vs 24)): 10 fold |
| Cc1noc(-c2nc(C)oc2NC(=O)c2c(F)c(F)c(F)c(F)c2F)n1 [Compound 43, Cc1noc(n1)-c1nc(oc1NC(=O)c1c(c(c(c(c1F)F)F)F)F)C] | 0.8 (≈ 0.299 µg/mL) | 1.8 (≈ 0.674 µg/mL) | 0.8 (≈ 0.299 µg/mL) | 1.8 (≈ 0.674 µg/mL) | 1.8 (≈ 0.674 µg/mL) | 0.7 (≈ 0.262 µg/mL) | 196 (≈ 73.3 µg/mL) | 196 (≈ 73.3 µg/mL) | <0.5 | <0.5 mL/min/g | 3.4 | 3.4 mL/min/g | 1.2 | < 4.00 | reduction in bacterial DNA in lungs compared to the untreated control (M. tuberculosis H37Rv [5]): no reduction in DNA levels; CFU reduction relative to input bacterial counts (M. tuberculosis H37Rv [6]; treatment for 3 days): ~1 log units; CFU reduction relative to input bacterial counts (M. tuberculosis H37Rv [6]; treatment for 7 days): ~2 log units; concentration required to exert a cidal effect [7]: 10 µM; parental material remaining ([8]; after 90 min, glutathione/NADPH): 57%; bioavailability [9]: very good; clearance [9]: very good; half-life [9]: moderate; volume of distribution [9]: limited; increase of Cmax in the animal efficacy study versus oral PK study [10]: < 3 fold; AUC(0-t) (in vivo): 167 µg·h/mL; Cmax (in vivo): 30000 ng/mL; fraction unbound (in vitro): 0.03 |
| COc1c(N2C[C@@H]3CCCN[C@@H]3C2)c(F)cc2c(=O)c(C(=O)O)cn(C3CC3)c12 [Moxifloxacin, reference compound] |  |  |  |  |  |  |  |  |  |  |  |  |  |  | reduction in bacterial DNA in lungs compared to the untreated control (M. tuberculosis H37Rv [5]): ~3 log |
| COC(=O)c1c(NC(=O)c2c(F)c(F)c(F)c(F)c2F)sc2c1CCCCC2 [TP2, reference compound] | 0.11 (≈ 0.0461 µg/mL) | 1.2 (≈ 0.503 µg/mL) |  |  |  |  |  |  |  | 15 mLmin/g |  | 43.2 mLmin/g | 4.6 | 4.89 | solubility kinetic (physchem [1]; water, kinetic from dmso stock): 0.2 µM (≈ 0.0839 µg/mL); time to complete elimination of parent ([8]; glutathione conjugation): ≤ 6 min; effect on mycolic acid biosynthesis [11]: inhibited mycolic acid biosynthesis |
| CCOC(=O)c1c(NC(=O)c2c(F)c(F)c(F)c(F)c2F)sc(C(N)=O)c1C [TP4, reference compound] | 0.03 (≈ 0.0127 µg/mL) | 0.26 (≈ 0.11 µg/mL) |  |  |  |  |  |  |  | 13 mLmin/g |  | >50 mLmin/g | 3.4 | 5.37 | solubility kinetic (physchem [1]; water, kinetic from dmso stock): 1.1 µM (≈ 0.465 µg/mL); effect on mycolic acid biosynthesis [11]: inhibited mycolic acid biosynthesis |
